SMILES strings stand for the structures.

The target in one data set is α1 adrenergic receptor. In words: Displacement of specific binding of [3H]prazosin from rat forebrain membranes. The settings on record: 0.2 nM [3H]prazosin, affinity defined as IC50 for displacement of specific binding. Here is the method:
Compounds of the formula I have selectivity for NR^2B subunit-containing NMDA receptors over α1-adrengergic receptors. Affinity for the NR^2B subunit containing NMDA receptor is measured as the IC50 for displacement of specific binding of racemic [^3H] (+)-(1S, 2S)-1-(4-hydroxy-phenyl)-2-(4-hydroxy4-phenylpiperidino)-1-propanol from rat forebrain membranes (described above). Affinity for the α1-adrengergic receptor is defined as the IC50 for displacement of specific binding of racemic [^3H]prazosin from rat brain membranes, measured as described by Greengrass and Bremner (Binding Characteristics of [^3H]prazosin to Rat Brain α-Adrenergic Receptors, European Journal of Pharmacology, 55, 323-326, (1979)).
Forebrains of adult male Sprague Dawley rats are homogenized in 20 volumes of ice cold 50 mM Tris/HCl buffer (pH 7.7). The homogenate is centrifuged at 50,000×g for 10 minutes at 4° C. The pellet is resuspended and centrifuged under identical conditions and the final pellet is resuspended in 80 volumes of 50 mM Tris/HCl (pH 8.0) at 4° C.
For binding assays, compounds under study are added at various concentrations to 500 μg membrane protein in 1 ml of 50 mM Tris/HCl buffer, followed by [^3H]prazosin (Amersham, specific activity 33 Ci/mmol, 0.2 nM final concentration). Following incubation for 30 min at 25° C. in a shaking water bath, samples are filtered onto Whatman GFB glass fiber filters using a MB-48R Cell Harvester (Brandel Research and Development Laboratories, Gaithersburg Md.). Filters are washed three times for 10s with ice cold Tris HCl buffer and the radioactivity trapped on the filter quantified by liquid scintillation spectroscopy. Nonspecific binding is determined in parallel incubations containing 100 nM prazosin. Specific binding is defined as total binding minus nonspecific binding.

Data set [1] deals with T1, NR2B subunit containing NMDA receptor (Rattus norvegicus, UniProt P35439+Q00960).
T1 construct: (+)-(1S, 2S)-1-(4-hydroxy-phenyl)-2-(4-hydroxy4-phenylpiperidino)-1-propanol from rat forebrain membranes; from tissue; host or cells: forebrain membranes of adult male CD rats
In words: Displacement of specific binding of racemic [3H](+)-(1S,2S)-1-(4-hydroxy-phenyl)-2-(4-hydroxy-4-phenylpiperidino)-1-propanol ([3H]CP-101,606) from rat forebrain membranes. The settings on record: ratio of the two binding IC50s; selectivity for NR2B NMDA receptor over α1 adrenergic receptor; greater than three is considered selective. Here is the method: This affinity is assessed in a radioligand binding assay as described below.
The binding of racemic [^3H] […] Forebrains of adult male CD rats are homogenized in 0.32M sucrose at 4° C. The crude nuclear pellet is removed by centrifugation at 1,000×g for 10 minutes, and the supernatant centrifuged at 17,000×g for 25 minutes. The resulting pellet is resuspended in 5 mM Tris acetate pH 7.4 at 4° C. for 10 minutes to lyse cellular particles and again centrifuged at 17,000×g. The resulting pellet is washed twice in Tris acetate, resuspended at 10 mg protein/ml and stored at −20° C. until use.
For binding assays, membranes are thawed, homogenized, and diluted to 0.5 mg protein/ml with 50 mM Tris HCl, pH 7.4. Compounds under study are added at various concentrations followed by racemic [^3H] […] Following incubation for 20 min at 30° C. in a shaking water bath, samples are filtered onto Whatman GFB glass fiber filters using a MB-48R Cell Harvester (Brandel Research and Development Laboratories, Gaithersburg Md.). Filters are washed for 10 s with ice cold Tris HCl buffer and the radioactivity trapped on the filter quantified by liquid scintillation spectroscopy. […] Specific binding is defined as total binding minus nonspecific binding.
Affinity for the NR^2B subunit containing NMDA receptor is measured as the IC50 for displacement of specific binding of racemic [^3H] […] Affinity for the α1-adrengergic receptor is defined as the IC50 for displacement of specific binding of racemic [^3H]prazosin from rat brain membranes, measured as described by Greengrass and Bremner (Binding Characteristics of [^3H]prazosin to Rat Brain α-Adrenergic Receptors, European Journal of Pharmacology, 55, 323-326, (1979)).

T1 sequence (Q00960 27-1482, other chains not shown): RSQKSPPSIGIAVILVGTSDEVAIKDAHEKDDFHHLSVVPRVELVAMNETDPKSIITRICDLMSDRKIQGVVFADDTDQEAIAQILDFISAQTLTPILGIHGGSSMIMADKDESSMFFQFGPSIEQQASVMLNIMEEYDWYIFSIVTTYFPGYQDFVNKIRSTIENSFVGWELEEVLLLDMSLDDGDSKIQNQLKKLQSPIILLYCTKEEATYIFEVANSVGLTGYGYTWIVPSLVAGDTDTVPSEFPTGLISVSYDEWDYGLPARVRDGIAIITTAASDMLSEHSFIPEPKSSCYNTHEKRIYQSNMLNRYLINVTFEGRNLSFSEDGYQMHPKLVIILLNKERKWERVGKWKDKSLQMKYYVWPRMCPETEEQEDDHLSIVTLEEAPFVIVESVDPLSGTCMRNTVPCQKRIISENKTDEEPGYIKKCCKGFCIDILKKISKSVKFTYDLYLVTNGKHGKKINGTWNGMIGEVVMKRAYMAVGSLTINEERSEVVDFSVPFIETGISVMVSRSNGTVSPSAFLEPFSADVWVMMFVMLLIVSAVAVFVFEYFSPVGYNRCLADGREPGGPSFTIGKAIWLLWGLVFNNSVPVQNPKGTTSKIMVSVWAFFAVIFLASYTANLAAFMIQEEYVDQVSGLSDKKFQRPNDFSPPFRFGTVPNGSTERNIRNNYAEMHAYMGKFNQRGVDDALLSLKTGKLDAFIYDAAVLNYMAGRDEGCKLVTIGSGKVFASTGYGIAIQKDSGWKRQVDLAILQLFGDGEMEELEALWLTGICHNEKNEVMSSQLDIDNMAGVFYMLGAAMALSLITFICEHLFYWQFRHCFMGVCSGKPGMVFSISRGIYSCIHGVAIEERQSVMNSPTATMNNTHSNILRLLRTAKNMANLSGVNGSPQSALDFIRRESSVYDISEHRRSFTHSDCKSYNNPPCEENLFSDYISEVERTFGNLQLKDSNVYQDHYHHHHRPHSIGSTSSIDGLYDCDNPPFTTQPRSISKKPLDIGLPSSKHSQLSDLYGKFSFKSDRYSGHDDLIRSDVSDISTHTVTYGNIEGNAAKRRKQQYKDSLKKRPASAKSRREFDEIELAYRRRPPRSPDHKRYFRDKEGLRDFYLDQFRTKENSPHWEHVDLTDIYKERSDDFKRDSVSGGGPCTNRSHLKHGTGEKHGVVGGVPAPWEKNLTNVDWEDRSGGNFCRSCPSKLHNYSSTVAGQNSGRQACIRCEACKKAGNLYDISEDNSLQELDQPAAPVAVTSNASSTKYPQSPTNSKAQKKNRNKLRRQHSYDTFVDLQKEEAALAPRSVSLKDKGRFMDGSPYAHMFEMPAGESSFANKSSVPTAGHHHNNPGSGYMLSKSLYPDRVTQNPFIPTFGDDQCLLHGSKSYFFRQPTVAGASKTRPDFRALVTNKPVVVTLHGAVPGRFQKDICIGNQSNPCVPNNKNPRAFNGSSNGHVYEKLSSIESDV

A word on the IC50: it is the concentration at which inhibition is half-maximal. A low value points to higher potency. In the case of `Cc1cc([C@@H](O)[C@@H](C)N2CCC(O)(c3ccc(F)cc3)CC2)ccc1O` (relative stereo) [(1R*, 2R*)-1-(4-hydroxy-3-methylphenyl)-2-(4-(4-fluorophenyl)-4-hydroxypiperidin-1-yl)-propan-1-ol-mesylate], the IC50 on α1 adrenergic receptor is 10 µM. The term melting point denotes the temperature of the solid-liquid transition. Compound `Oc1ccc2c(c1)OCC(N1CCC(O)(c3ccc(F)cc3)CC1)[C@H]2O` (stereo in doubt) had a melting point of 159 to 160 °C. As to `COc1cc([C@H](O)[C@H](C)N2CCC(O)(c3ccccc3)CC2)ccc1O` [1S, 2S 1-(4-hydroxy-3-methoxyphenyl)-2-(4-hydroxy-4-phenyl-piperidin-1-yl)-propan-1-ol], the IC50 on α1 adrenergic receptor was 8.1 µM. Besides, the “Ratio [^3H]Prazosin/[^3H](+)-(1S, 2S)-1-(4-hydroxy-phenyl)-2-(4-hydroxy-4-phenylpiperidino)-1-propanol” value (“Ratio” for short) in data set [1] stood at 86. At α1 adrenergic receptor, `C[C@@H]([C@@H](O)c1ccc(O)cc1)N1CCC(O)(c2ccccc2)CC1` [(1S,2S)-1-(4-hydroxyphenyl)-2-(4-hydroxy-4-phenylpiperidino)-1-propanol] gave an IC50 of 19.5 µM. For the compound `Oc1ccc2c(c1)OC[C@@H](N1CCC(O)(c3ccc(F)cc3)CC1)[C@H]2O` [(3R,4S)-3-[4-(4-fluorophenyl)-4-hydroxy-piperidin-1-yl]-chroman-4,7-diol], at α1 adrenergic receptor, the IC50 was > 10 µM. For the same compound, in data set [1], the “Ratio” value is on record as “≧555”. The compound `OC(CN1CCC(Cc2ccc(F)cc2)CC1)c1ccc(Cl)cc1` (stereo not drawn) [Eliprodil, reference compound] returned an IC50 at α1 adrenergic receptor of 0.98 ± 0.22 µM. In data set [1], the “Ratio” value is recorded as 2.2.

(Values after patent publication US6667317B2, “Pharmaceutical combinations for the treatment of stroke and traumatic brain injury” (Pfizer Inc, priority 2000, dated 2003).)
